Data from patent publication US20240090503A1, “FUNGICIDAL OXADIAZOLES AND THEIR MIXTURES” (FMC CORPORATION, priority 2020, published 2024).

What was measured:
[1] = system: Phakopsora pachyrhizi (the causal agent of Asian soybean rust); assay: Test A: preventive spray on soybean seedlings, Asian soybean rust, visual disease rating; assay type: in vivo; settings: soybean seedlings
Source text: (§1) General protocol for preparing test suspensions for Tests A-D: the test compounds were first dissolved in acetone in an amount equal to 3% of the final volume and then suspended at the desired concentration (in ppm) in acetone and purified water (50/50 mix by volume) containing 250 ppm of the surfactant PEG400 (polyhydric alcohol esters). The resulting test suspensions were then used in Tests A-D.
(§2) The test suspension was sprayed to the point of run-off on soybean seedlings. The following day the seedlings were inoculated with a spore suspension of Phakopsora pachyrhizi (the causal agent of Asian soybean rust) and incubated in a saturated atmosphere at 22° C. for 24 h and then moved to a growth chamber at 22° C. for 8 days, after which time visual disease ratings were made.
(§3) The test results for Tests A-C presented in Table A below for compounds of Formula 1 illustrate the fungicidal activity of component (a) contributing to the plant disease control utility of compositions comprising component (a) in combination with component (b) according to the present invention. In the Table, a rating of 100 indicates 100% disease control and a rating of 0 indicates no disease control (relative to the controls). A dash (-) indicates the compound was not tested. The test suspensions were sprayed at the concentration listed in the column “Rate in ppm”, unless otherwise indicated. An asterisk “*” next to the rating indicates a 250 ppm test suspension was used, a double asterisk “**” next to the rating indicates a 100 ppm test suspension was used, and a triple asterisk “***” next to the rating indicates a 50 ppm test suspension was used.

[2] = system: Puccinia recondita f. sp. tritici (the causal agent of wheat leaf rust); assay: Test C: preventive spray on wheat seedlings, wheat leaf rust, visual disease rating; assay type: in vivo; settings: wheat seedlings
Source text: as §1
as §2, with “on wheat” for “on soybean”, “of Puccinia recondita f. sp. tritici;” for “of Phakopsora pachyrhizi”, “of wheat leaf” for “of Asian soybean”, “at 20°” for “at 22°”, “24 h,” for “24 h”, “for 6” for “for 8”
as §3

[3] = test suspension 10 ppm, 100 = 100% disease control, 0 = no control

SMILES	Test A disease control rating ([1]; test suspension 50 ppm) [%]	Test C disease control rating ([2]; test suspension 50 ppm) [%]	Test A disease control rating [1, 3] [%]	Test C disease control rating ([2]; test suspension 10 ppm) [%]
CCOC(=O)c1cc(C(=O)OCC)n(Cc2ccc(-c3noc(C(F)(F)F)n3)cc2)n1 [compound 154]	100	100	–	–
O=c1c2ccccc2sn1Cc1ccc(-c2noc(C(F)(F)F)n2)cc1 [compound 155]	–	–	60	0
O=c1ccc2ccccc2n1Cc1ccc(-c2noc(C(F)(F)F)n2)cc1 [compound 157]	–	–	100	100
FC(F)(F)c1nc(-c2ccc(CN3Cc4ccccc4C3)cc2)no1 [compound 160]	–	–	99	98
C=C(Br)COC(=O)c1cnn(Cc2ccc(-c3noc(C(F)(F)F)n3)cc2)c1 [compound 167]	–	–	100	100
C=CC(F)(F)OC(=O)c1cnn(Cc2ccc(-c3noc(C(F)(F)F)n3)cc2)c1 [compound 168]	–	–	100	100
CC(C)=CCOC(=O)c1cnn(Cc2ccc(-c3noc(C(F)(F)F)n3)cc2)c1 [compound 169]	–	–	100	99
COC(=O)C1(NC(=O)c2cnn(Cc3ccc(-c4noc(C(F)(F)F)n4)cc3)c2)CC1 [compound 172]	–	–	100	99
N#CC1(NC(=O)c2cnn(Cc3ccc(-c4noc(C(F)(F)F)n4)cc3)c2)CC1 [compound 173]	–	–	100	96
CCOC(=O)c1nn(Cc2ccc(-c3noc(C(F)(F)F)n3)cc2)c(C(=O)OCC)c1C(=O)OCC [compound 174]	–	–	85	91
Cc1cc(C(=O)O)nn1Cc1ccc(-c2noc(C(F)(F)F)n2)cc1 [compound 179]	–	–	98	9
Cc1cc(C(=O)OC(=O)C(F)(F)F)nn1Cc1ccc(-c2noc(C(F)(F)F)n2)cc1 [compound 180]	–	–	97	0
Cc1cc(C(=O)NCC#N)nn1Cc1ccc(-c2noc(C(F)(F)F)n2)cc1 [compound 181]	–	–	100	100
Cc1cc(C(=O)N(C)C)nn1Cc1ccc(-c2noc(C(F)(F)F)n2)cc1 [compound 182]	–	–	100	100
Cc1cc(C(=O)OCC#N)nn1Cc1ccc(-c2noc(C(F)(F)F)n2)cc1 [compound 184]	–	–	100	55
Cc1cc(C(=O)OCC#N)nn1Cc1ccc(-c2noc(C(F)(F)F)n2)cc1 [compound 185]	–	–	100	98
C=CCOC(=O)c1cc(C)n(Cc2ccc(-c3noc(C(F)(F)F)n3)cc2)n1 [compound 186]	–	–	100	74
CCOC(=O)c1cc(C(C)(C)C)n(Cc2ccc(-c3noc(C(F)(F)F)n3)cc2)n1 [compound 187]	–	–	0	0
N#Cc1cnn(Cc2ccc(-c3noc(C(F)(F)F)n3)s2)c1 [compound 189]	100	100	–	–
C#CCOC(=O)c1cnn(Cc2ccc(-c3noc(C(F)(F)F)n3)s2)c1 [compound 190]	–	–	100	100
N#Cc1ccc2c(cnn2Cc2ccc(-c3noc(C(F)(F)F)n3)s2)c1 [compound 194]	–	–	100	100
COc1ccc2c(cnn2Cc2ccc(-c3noc(C(F)(F)F)n3)s2)c1 [compound 195]	–	–	100	98
FC(F)(F)c1nc(-c2ccc(Cn3ccc4ccccc43)s2)no1 [compound 196]	–	–	100	93
O=Cc1cnn(Cc2ccc(-c3noc(C(F)(F)F)n3)s2)c1 [compound 197]	–	–	99	98
C=CCOC(=O)c1cnn(Cc2ccc(-c3noc(C(F)(F)F)n3)s2)c1 [compound 199]	–	–	100	100

SMILES	Test A disease control rating ([1]; test suspension 50 ppm) [%]	Test C disease control rating ([2]; test suspension 50 ppm) [%]	Test A disease control rating [1, 3] [%]	Test C disease control rating ([2]; test suspension 10 ppm) [%]
CC(C)OC(=O)c1cnn(Cc2ccc(-c3noc(C(F)(F)F)n3)s2)c1 [compound 200]	–	–	100	100
N#CC(C#N)NC(=O)c1coc(Cc2ccc(-c3noc(C(F)(F)F)n3)cc2)n1 [compound 203]	–	–	100	86
C[Si](C)(C)CCNC(=O)c1coc(Cc2ccc(-c3noc(C(F)(F)F)n3)cc2)n1 [compound 206]	–	–	98	68
O=C(c1csc(Cc2ccc(-c3noc(C(F)(F)F)n3)cc2)n1)N1CCC(F)(F)C1 [compound 207]	–	–	100	86
O=C(NCC=C(Cl)Cl)c1csc(Cc2ccc(-c3noc(C(F)(F)F)n3)cc2)n1 [compound 208]	–	–	100	86
CC(COC(=O)c1cnn(Cc2ccc(-c3noc(C(F)(F)F)n3)cc2)c1)=NOC1CCCCO1 (stereo not shown) [compound 218]	–	–	100	98
CCCCON=C(C)COC(=O)c1cnn(Cc2ccc(-c3noc(C(F)(F)F)n3)cc2)c1 [compound 219]	–	–	100	86
CC(COC(=O)c1cnn(Cc2ccc(-c3noc(C(F)(F)F)n3)cc2)c1)=NOC(C)(C)C [compound 220]	–	–	100	86
CCON=C(C)COC(=O)c1cnn(Cc2ccc(-c3noc(C(F)(F)F)n3)cc2)c1 [compound 221]	–	–	100	95
CC(COC(=O)c1cnn(Cc2ccc(-c3noc(C(F)(F)F)n3)cc2)c1)=NOC(C)C [compound 222]	–	–	100	97
CC(COC(=O)c1cnn(Cc2ccc(-c3noc(C(F)(F)F)n3)cc2)c1)=NO [compound 223]	–	–	100	91
CCOC(=O)c1cnn(CSCc2ccc(-c3noc(C(F)(F)F)n3)cc2)c1 [compound 241]	–	–	100	100
CCOC(=O)c1cnn(C[S+]([O-])Cc2ccc(-c3noc(C(F)(F)F)n3)cc2)c1 (stereo not shown) [compound 242]	–	–	100	99
CCOC(=O)c1cnn(CS(=O)(=O)Cc2ccc(-c3noc(C(F)(F)F)n3)cc2)c1 [compound 243]	–	–	98	85
O=C(COC(=O)c1cnn(Cc2ccc(-c3noc(C(F)(F)F)n3)cc2)c1)c1ccccc1 [compound 244]	–	–	100	95
CON=C(COC(=O)c1cnn(Cc2ccc(-c3noc(C(F)(F)F)n3)cc2)c1)c1ccccc1 [compound 245]	–	–	100	86
CCOC(=O)c1cnn(C(C)c2ccc(-c3noc(C(F)(F)F)n3)s2)c1 (stereo not shown) [compound 246]	–	–	100	100
CCOC(=O)c1cnn(C(C)c2ccc(-c3noc(C(F)(F)F)n3)s2)c1 (stereo not shown) [compound 247]	–	–	100	100
CCCOC(=O)c1cnn(C(C)c2ccc(-c3noc(C(F)(F)F)n3)s2)c1 (stereo not shown) [compound 248]	–	–	100	100
CCCOC(=O)c1cnn(C(C)c2ccc(-c3noc(C(F)(F)F)n3)s2)c1 (stereo not shown) [compound 249]	–	–	100	100
CCCOC(=O)c1cnn(Cc2cc(-c3noc(C(F)(F)F)n3)cs2)c1 [compound 250]	–	–	100	74
CC(C)OC(=O)c1cnn(Cc2cc(-c3noc(C(F)(F)F)n3)cs2)c1 [compound 251]	–	–	100	74
Cn1c(C(F)(F)F)nn(Cc2ccc(-c3noc(C(F)(F)F)n3)cc2)c1=O [compound 267]	99	74	–	–
CCOc1ccccc1OCCOC(=O)c1cnn(Cc2ccc(-c3noc(C(F)(F)F)n3)cc2)c1 [compound 268]	–	–	100	86
CC1(COC(=O)c2cnn(Cc3ccc(-c4noc(C(F)(F)F)n4)cc3)c2)COC1 [compound 269]	–	–	100	100
